{
  "source": "patent US20260200903A1",
  "about": "“PHARMACEUTICAL COMPOSITION FOR AMELIORATING MALIGNANT DISEASES” (KINKI UNIVERSITY, priority 2020, published 2026)",
  "format_in_all_cases": "cell-based",
  "key": {"Raji cells": {"system": "Raji cells", "test": "Cell death-inducing effect of rituximab in Raji cells, trypan blue staining", "details": "cell viability", "excerpt": "(§1) Referring to FIG. 7, the horizontal axis is the rituximab concentration (μg/mL) and the vertical axis is the cell viability (%). […] However, the cell viability was clearly higher in RR1 cells, confirming that they are resistant to rituximab."}, "KMS-28BM cells": {"system": "KMS-28BM cells", "test": "Cell death in KMS-28BM cells by each compound in combination with rituximab, trypan blue staining", "details": "10 days with 0.1 M9, 0.01 μM M14/M15/M16, 0.5 μM M18/M19, then human serum and rituximab", "method": "As a control, compounds untreated KMS-28BM cells were seeded in 75 cm^2 flasks and incubated for 10 days at 37° C. and 5% CO2. KMS-28BM cells were seeded into 75 cm^2 flasks and pre-cultured for 24 h. After incubation, KMS-28BM cells were treated with […], 0.01 μM M14, 0.01 μM M15, 0.01 μM M16, 0.5 μM M18, and 0.5 μM M19 at final concentrations, and incubated for 10 days at 37° C. and 5% CO2. This added amount is a concentration lower than the IC50 of the above compounds for KMS-28BM cells.\nAfter 10 days of incubation, cells were seeded into 96-well plates, human serum and 10 µg/mL rituximab were added, and cell viability was determined by the trypan blue staining.\nFor controls, only 0.5% DMSO (diluted in PBS) used to dissolve the compounds was added."}, "RR1 cells": {"system": "RR1 cells", "test": "Cell death-inducing effect of rituximab in RR1 cells, trypan blue staining", "excerpt": "Raji cells, a burkitt lymphoma cell line, were modified to be rituximab-resistant and named RR1 cells.\nas §1"}},
  "data": [
    {"substance": "rituximab: an anti-CD20 monoclonal antibody", "values": [
      {"measurement": "IC50 of Raji cells to rituximab", "setting": "Raji cells", "result": 0.121, "unit": "µg/mL"},
      {"measurement": "cell death induction compared to control", "setting": "KMS-28BM cells", "result": "did not induce cell death"},
      {"measurement": "IC50 of RR1 cells to rituximab", "setting": "RR1 cells; RR1 cells, cell viability", "result": 98, "unit": "µg/mL"},
      {"measurement": "resistance of RR1 cells to rituximab relative to Raji cells", "setting": "RR1 cells; ratio of IC50 RR1 / Raji", "result": "approximately 809 times"}
    ]}
  ]
}
